Laboratory results reported in patent US20060046976A1, “Method for increasing the bone mineral density and bone micro-architecture or connectivity of a mammal using N-acylated glucosamines” (priority 2004, published 2006).

Test system: SCW-arthritis rats
Test: Two-dimensional subchondral bone analysis (structure, connectivity/strut analysis, plate thickness) of proximal tibia, SCW-arthritis rats
Assay type: in vivo, Lewis type rats
[1] = SCW + 20 mg, Middle section/lateral
[2] = SCW + 20 mg, Middle section/medial

CCCC(=O)N[C@H]1C(O)O[C@H](CO)[C@@H](O)[C@@H]1O (stereo partly drawn) [GlcNBu, N-butyryl-D-glucosamine]
2D-BV/TV % loss (SCW + 20 mg, Anterior/lateral): 40% | 2D-BV/TV Mean ± SEM (SCW + 20 mg, Anterior/lateral): 23.7 ± 2.3% | 2D-Tb.N % loss (SCW + 20 mg, Anterior/lateral): 21% | 2D-Tb.N Mean ± SEM (SCW + 20 mg, Anterior/lateral): 5.8 ± 0.4 /mm | 2D-Tb.Th % loss (SCW + 20 mg, Anterior/lateral): 32% | 2D-Tb.Th Mean ± SEM (SCW + 20 mg, Anterior/lateral): 38.7 ± 1.7 um | End Points % loss (SCW + 20 mg, Anterior/lateral): −134% | End Points Mean ± SEM (SCW + 20 mg, Anterior/lateral): 36.2 ± 2.5 1/mm2 | Multiple points % loss (SCW + 20 mg, Anterior/lateral): 43% | Multiple points Mean ± SEM (SCW + 20 mg, Anterior/lateral): 9.3 ± 1.6 1/mm2 | Node-node struts % loss (SCW + 20 mg, Anterior/lateral): 75% | Node-node struts Mean ± SEM (SCW + 20 mg, Anterior/lateral): 0.8 ± 0.2 mm/mm2 | Total Strut length % loss (SCW + 20 mg, Anterior/lateral): 30% | Total Strut length Mean ± SEM (SCW + 20 mg, Anterior/lateral): 5.3 ± 0.4 mm/mm2 | 2D-BV/TV % loss (SCW + 20 mg, Anterior/medial): 33% | 2D-BV/TV Mean ± SEM (SCW + 20 mg, Anterior/medial): 27.2 ± 1.4% | 2D-Tb.N % loss (SCW + 20 mg, Anterior/medial): 12% | 2D-Tb.N Mean ± SEM (SCW + 20 mg, Anterior/medial): 5.6 ± 0.3 /mm | 2D-Tb.Th % loss (SCW + 20 mg, Anterior/medial): 29% | 2D-Tb.Th Mean ± SEM (SCW + 20 mg, Anterior/medial): 48.6 ± 1.6 um | End Points % loss (SCW + 20 mg, Anterior/medial): −67% | End Points Mean ± SEM (SCW + 20 mg, Anterior/medial): 22.5 ± 1.7 1/mm2 | Multiple points % loss (SCW + 20 mg, Anterior/medial): 42% | Multiple points Mean ± SEM (SCW + 20 mg, Anterior/medial): 9.2 ± 1.0 1/mm2 | Node-node struts % loss (SCW + 20 mg, Anterior/medial): 47% | Node-node struts Mean ± SEM (SCW + 20 mg, Anterior/medial): 1.2 ± 0.2 mm/mm2 | Total Strut length % loss (SCW + 20 mg, Anterior/medial): 14% | Total Strut length Mean ± SEM (SCW + 20 mg, Anterior/medial): 5.1 ± 0.3 mm/mm2 | 2D-BV/TV % loss [1]: 13% | 2D-BV/TV Mean ± SEM [1]: 24.9 ± 1.6% | 2D-Tb.N % loss [1]: 2% | 2D-Tb.N Mean ± SEM [1]: 4.6 ± 0.2 /mm | 2D-Tb.Th % loss [1]: 11% | 2D-Tb.Th Mean ± SEM [1]: 54.3 ± 2.8 um | End Points % loss [1]: −69% | End Points Mean ± SEM [1]: 17.5 ± 1.9 1/mm2 | Multiple points % loss [1]: 16% | Multiple points Mean ± SEM [1]: 8.3 ± 1.1 1/mm2 | Node-node struts % loss [1]: 3% | Node-node struts Mean ± SEM [1]: 1.0 ± 0.2 mm/mm2 | Total Strut length % loss [1]: 14% | Total Strut length Mean ± SEM [1]: 4.0 ± 0.2 mm/mm2 | 2D-BV/TV % loss [2]: 31% | 2D-BV/TV Mean ± SEM [2]: 29.2 ± 2.3% | 2D-Tb.N % loss [2]: 1% | 2D-Tb.N Mean ± SEM [2]: 4.6 ± 0.2 /mm | 2D-Tb.Th % loss [2]: 30% | 2D-Tb.Th Mean ± SEM [2]: 63.0 ± 4.0 um | End Points % loss [2]: −184% | End Points Mean ± SEM [2]: 14.1 ± 2.3 1/mm2 | Multiple points % loss [2]: 13% | Multiple points Mean ± SEM [2]: 9.9 ± 1.1 1/mm2 | Node-node struts % loss [2]: 42% | Node-node struts Mean ± SEM [2]: 1.2 ± 0.2 mm/mm2 | Total Strut length % loss [2]: 11% | Total Strut length Mean ± SEM [2]: 4.2 ± 0.3 mm/mm2 | 2D-BV/TV % loss (SCW + 20 mg, Posterior/lateral): 21% | 2D-BV/TV Mean ± SEM (SCW + 20 mg, Posterior/lateral): 24.9 ± 1.5% | 2D-Tb.N % loss (SCW + 20 mg, Posterior/lateral): 7% | 2D-Tb.N Mean ± SEM (SCW + 20 mg, Posterior/lateral): 4.8 ± 0.2 /mm | 2D-Tb.Th % loss (SCW + 20 mg, Posterior/lateral): 19% | 2D-Tb.Th Mean ± SEM (SCW + 20 mg, Posterior/lateral): 51.8 ± 1.6 um | End Points % loss (SCW + 20 mg, Posterior/lateral): −100% | End Points Mean ± SEM (SCW + 20 mg, Posterior/lateral): 20.0 ± 1.8 1/mm2 | Multiple points % loss (SCW + 20 mg, Posterior/lateral): 55% | Multiple points Mean ± SEM (SCW + 20 mg, Posterior/lateral): 7.8 ± 0.8 1/mm2 | Node-node struts % loss (SCW + 20 mg, Posterior/lateral): 30% | Node-node struts Mean ± SEM (SCW + 20 mg, Posterior/lateral): 0.9 ± 0.1 mm/mm2 | Total Strut length % loss (SCW + 20 mg, Posterior/lateral): 11% | Total Strut length Mean ± SEM (SCW + 20 mg, Posterior/lateral): 4.3 ± 0.2 mm/mm2 | 2D-BV/TV % loss (SCW + 20 mg, Posterior/medial): 20% | 2D-BV/TV Mean ± SEM (SCW + 20 mg, Posterior/medial): 36.2 ± 1.6% | 2D-Tb.N % loss (SCW + 20 mg, Posterior/medial): 3% | 2D-Tb.N Mean ± SEM (SCW + 20 mg, Posterior/medial): 6.2 ± 0.2 /mm | 2D-Tb.Th % loss (SCW + 20 mg, Posterior/medial): 23% | 2D-Tb.Th Mean ± SEM (SCW + 20 mg, Posterior/medial): 59.3 ± 2.3 um | End Points % loss (SCW + 20 mg, Posterior/medial): −216% | End Points Mean ± SEM (SCW + 20 mg, Posterior/medial): 16.2 ± 2.1 1/mm2 | Multiple points % loss (SCW + 20 mg, Posterior/medial): 36% | Multiple points Mean ± SEM (SCW + 20 mg, Posterior/medial): 12.6 ± 1.4 1/mm2 | Node-node struts % loss (SCW + 20 mg, Posterior/medial): 37% | Node-node struts Mean ± SEM (SCW + 20 mg, Posterior/medial): 1.7 ± 0.3 mm/mm2 | Total Strut length % loss (SCW + 20 mg, Posterior/medial): 10% | Total Strut length Mean ± SEM (SCW + 20 mg, Posterior/medial): 5.7 ± 0.3 mm/mm2 | 2D-BV/TV % loss (SCW + 200 mg, Anterior/lateral): 37% | 2D-BV/TV Mean ± SEM (SCW + 200 mg, Anterior/lateral): 24.8 ± 3.4% | 2D-Tb.N % loss (SCW + 200 mg, Anterior/lateral): 20%
